In US9951372B2, “Compounds and methods for assaying redox state of metabolically active cells and methods for measuring NAD(P)/NAD(P)H” (PROMEGA CORPORATION, priority 2011, dated 2018):
Like-named read-outs stand apart in the source and are kept apart here.

Experiments:
Jurkat cells = assay: Measuring metabolically active cells with quinone coelenterazine derivatives; format: cell-based, human; conditions: Jurkat cell dilutions; 30 minute incubation; Oplophorus luciferase detection reagent
Procedure: Two-fold serial dilutions of Jurkat cells were prepared in PBS, and 50 μl per well transferred to wells in 96-well plates. Compound PBI 4600 and 4601 were diluted in PBS to make 50 μM and 100 μM stocks, respectively. 10 μl of prepared compound stocks were added to the cells, and the cells were placed into 37° C., 5% CO2 incubator. Following a 30 minute incubation, the cells were removed from incubator, cooled at room temperature for 10 minutes, and 50 μl of Oplophorus luciferase detection reagent (Promega Corporation) added directly to the wells. The samples were mixed, incubated at room temperature for 20 minutes, and luminescence measured.

rat diaphorase = biological target: T1, rat diaphorase (Rattus norvegicus, UniProt P05982); format: biochemical; conditions: for Fluorescence time course, Rat: 10 uM NADH
T1 construct: purchased Sigma
T1 sequence (P05982 2-274 limits assumed): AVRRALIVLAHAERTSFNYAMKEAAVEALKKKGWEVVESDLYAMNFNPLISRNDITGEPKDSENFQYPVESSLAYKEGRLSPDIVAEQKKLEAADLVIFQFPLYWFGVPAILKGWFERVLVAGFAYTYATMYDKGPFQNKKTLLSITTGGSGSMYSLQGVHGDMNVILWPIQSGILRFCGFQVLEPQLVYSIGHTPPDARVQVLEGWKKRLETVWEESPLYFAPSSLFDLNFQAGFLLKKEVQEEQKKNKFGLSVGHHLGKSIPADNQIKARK

Clostridium diaphorase = assay: Fluorescent NADH detection assay, Clostridium diaphorase; format: biochemical; conditions: for FLUs: 1 u/ml Clostridium diaphorase; for Fluorescence time course, Clostridium: 10 uM NADH
Procedure: Each fluorescent substrate (PBI-4412, 4413, 4440, and 4441) was incubated at 920 μM with 0 μM or 10 μM NADH (Sigma) or a titration of NADH (Table 8) and 1 u/ml rat diaphorase (Sigma) or 1 u/ml Clostridium diaphorase (Sigma) in a volume of 100 μl in 50 mM Tris pH 7.5. Single reactions were prepared in the wells of a 96-well black plate at room temperature. Fluorescence was monitored over the course of two hours at excitation and emission wavelengths of 485 and 527, respectively, using a fluorescence plate reader. […] Table 7 and FIGS. 24a-b show the reaction time course with each substrate with 10 uM NADH. Table 8 and FIG. 25 show the NADH titration at 60 minutes with PBI-4440 and 4412 with rat diaphorase.

HeLa cells = assay: Fluorescent imaging of live cells; format: cell-based; conditions: 10 μM substrate
Procedure: HeLa cells were plated at 40,000 cell/well into wells of an 8-well chambered coverslip and incubated at 37° C.+5% CO2. The media (DMEM) was replaced with warm complete media (with 10% FBS) containing 10 μM PBI-4412, 4413, 4440 or 4441. Cells were then transferred to a confocal microscope for imaging using 10% λ488 nm laser power (4412, 4413, and 4441) or 5% laser power (4440). All images (FIGS. 6a-d) are at 30× magnification.

HEK293 cells = assay: Measuring metabolically active cells with quinone fluorescein derivatives; format: cell-based; conditions: HEK293 cell dilutions; 60 minutes; 480ex/530em
Procedure: i. Two-fold serial dilutions of HEK293 cells were prepared in full DMEM media, and 100 μl per well were transferred into wells of 96-well plates. Compounds PBI 4440 and 4412 were diluted in full DMEM media to make 20 μM and 10 μM stocks, respectively. 100 μl of the prepared compound stocks were added to the cells, and the cells were incubated for 60 minutes in a 37° C., 5% CO2 incubator. Following incubation, the cells were removed from incubator, and fluorescence measured with Tecan Infinite 500 at 480ex/Em530em wavelength.

## CC1=C(C)C(=O)C(C(C)(C)CC(=O)N(C)CCN(C)C(=O)Oc2c(Cc3ccco3)nc3c(Cc4ccccc4)nc(-c4ccccc4)cn23)=C(C)C1=O [PBI 4600]
Jurkat cells
  relationship of luminescence to cell number: linear correlation between cell number and luminescence

## CC1=C(C)C(=O)C(C(C)(C)CC(=O)N(C)CCN(C)C(=O)Oc2ccc3c(c2)Oc2cc(O)ccc2C32OC(=O)c3ccccc32)=C(C)C1=O (stereo not drawn) [PBI 4440, Mono-quinone trimethyllock diamine fluorescein]
Rat diaphorase; 0 μM NADH, 60 min, 1 u/ml rat diaphorase
  FLUs: 2922 FLUs
Rat diaphorase; 10 μM NADH, 60 min, 1 u/ml rat diaphorase, substrate 920 μM
  FLUs: 180909 FLUs
Rat diaphorase; 2 min
  Fluorescence time course, Rat: 6473 FLUs
Rat diaphorase; 4 min
  Fluorescence time course, Rat: 18626 FLUs
Rat diaphorase; 5 min
  Fluorescence time course, Rat: 28997 FLUs
Rat diaphorase; 10 min
  Fluorescence time course, Rat: 73216 FLUs
Rat diaphorase; 20 min
  Fluorescence time course, Rat: 133999 FLUs
Rat diaphorase; 30 min
  Fluorescence time course, Rat: 161355 FLUs
Rat diaphorase; 40 min
  Fluorescence time course, Rat: 173345 FLUs
Rat diaphorase; 50 min
  Fluorescence time course, Rat: 178374 FLUs
Rat diaphorase; 60 min
  Fluorescence time course, Rat: 180909 FLUs
Rat diaphorase; 70 min
  Fluorescence time course, Rat: 182618 FLUs
Rat diaphorase; 80 min
  Fluorescence time course, Rat: 182416 FLUs
Rat diaphorase; 90 min
  Fluorescence time course, Rat: 182263 FLUs
Rat diaphorase; 100 min
  Fluorescence time course, Rat: 181996 FLUs
Rat diaphorase; 110 min
  Fluorescence time course, Rat: 182253 FLUs
Rat diaphorase; 120 min
  Fluorescence time course, Rat: 182132 FLUs
Rat diaphorase; NADH 0 μM, 60 minutes, rat diaphorase
  FLUs: 2922 FLUs
Rat diaphorase; NADH 1.25 μM, 60 minutes, rat diaphorase
  FLUs: 24788 FLUs
Rat diaphorase; NADH 2.5 μM, 60 minutes, rat diaphorase
  FLUs: 50387 FLUs
Rat diaphorase; NADH 5 μM, 60 minutes, rat diaphorase
  FLUs: 99331 FLUs
Rat diaphorase; NADH 10 μM, 60 minutes, rat diaphorase
  FLUs: 180909 FLUs
Rat diaphorase; NADH 20 μM, 60 minutes, rat diaphorase
  FLUs: 309004 FLUs
Rat diaphorase; NADH 40 μM, 60 minutes, rat diaphorase
  FLUs: 304293 FLUs
Rat diaphorase; NADH 80 μM, 60 minutes, rat diaphorase
  FLUs: 305861 FLUs
Clostridium diaphorase; 0 μM NADH, 60 min
  FLUs: 3050 FLUs
Clostridium diaphorase; 10 μM NADH, 60 min, substrate 920 μM
  FLUs: 43362 FLUs
Clostridium diaphorase; 2 min
  Fluorescence time course, Clostridium: 3611 FLUs
Clostridium diaphorase; 4 min
  Fluorescence time course, Clostridium: 7197 FLUs
Clostridium diaphorase; 5 min
  Fluorescence time course, Clostridium: 10142 FLUs
Clostridium diaphorase; 10 min
  Fluorescence time course, Clostridium: 20624 FLUs
Clostridium diaphorase; 20 min
  Fluorescence time course, Clostridium: 33781 FLUs
Clostridium diaphorase; 30 min
  Fluorescence time course, Clostridium: 39807 FLUs
Clostridium diaphorase; 40 min
  Fluorescence time course, Clostridium: 42268 FLUs
Clostridium diaphorase; 50 min
  Fluorescence time course, Clostridium: 43000 FLUs
Clostridium diaphorase; 60 min
  Fluorescence time course, Clostridium: 43362 FLUs
Clostridium diaphorase; 70 min
  Fluorescence time course, Clostridium: 43750 FLUs
Clostridium diaphorase; 80 min
  Fluorescence time course, Clostridium: 43425 FLUs
Clostridium diaphorase; 90 min
  Fluorescence time course, Clostridium: 43468 FLUs
Clostridium diaphorase; 100 min
  Fluorescence time course, Clostridium: 43296 FLUs
Clostridium diaphorase; 110 min
  Fluorescence time course, Clostridium: 43005 FLUs
Clostridium diaphorase; 120 min
  Fluorescence time course, Clostridium: 43150 FLUs
HeLa cells
  reduction of substrate in live cells (confocal images): only reduced once inside cells
HEK293 cells
  relationship of fluorescence to cell number: linear correlation between cell number and fluorescence
